T1: DAP epimerase (DapF) (Arabidopsis thaliana, UniProt Q9LFG2)
T1 sequence (Q9LFG2 52-362): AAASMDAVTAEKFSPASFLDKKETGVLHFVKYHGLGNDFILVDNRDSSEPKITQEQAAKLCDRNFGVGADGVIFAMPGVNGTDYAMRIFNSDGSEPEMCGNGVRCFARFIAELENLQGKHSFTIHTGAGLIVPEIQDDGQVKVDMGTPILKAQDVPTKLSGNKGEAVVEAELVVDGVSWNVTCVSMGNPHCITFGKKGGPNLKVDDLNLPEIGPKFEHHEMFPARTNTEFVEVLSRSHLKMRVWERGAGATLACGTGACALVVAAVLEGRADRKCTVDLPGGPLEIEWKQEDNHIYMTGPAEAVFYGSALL


Experiments:
DAP epimerase (DapF) [1] = target: T1, DAP epimerase (DapF); test: DAP dehydrogenase-coupled assay at […] inhibitor, time-dependent pre-incubation; type: biochemical
DAP epimerase (DapF) [2] = target: T2, DAP epimerase (DapF); test: DAP dehydrogenase-coupled assay, […] h pre-incubation, slow-binding; type: biochemical, Anabaena sp. YBS01
T2 construct: C-terminal hexahistidine tag

DAP epimerase (DapF) [3] = target: T2, DAP epimerase (DapF); test: X-ray crystal structure ([…] Å); DAP dehydrogenase-coupled inhibition assay after […] h incubation; type: biochemical, Anabaena sp. YBS01
purified protein = substrate: N[C@@H](CCC[C@H](N)C(=O)O)C(=O)O; test: purified protein

IC50 (DAP epimerase (DapF) [2]) [µM] | IC50 (DAP epimerase (DapF) [3]) [µM] | Molecule | DAP dehydrogenase-coupled assay at 250 μM inhibitor, time-dependent pre-incubati (DAP epimerase (DapF) [1]) | Km (purified protein) [µM]
120 | – | C[C@](N)(CCC[C@H](N)C(=O)O)C(=O)O [L,L-α-methylDAP] | A. thaliana DapF behaved similarly to Anabaena DapF and activity decreased with increasing length of pre‐incubation | –
– | 160 | C[C@@](N)(CCC[C@H](N)C(=O)O)C(=O)O [D,L-α-methylDAP, (2R,6S)‐2,6‐diamino‐2‐methylheptanedioic acid] | A. thaliana DapF behaved similarly to Anabaena DapF and activity decreased with increasing length of pre‐incubation | –
– | – | DAP epimerase (DapF) (Arabidopsis thaliana) (protein) AAASMDAVTAEKFSPASFLDKKETGVLHFVKYHGLGNDFILVDNRDSSEPKITQEQAAKLCDRNFGVGADGVIFAMPGVNGTDYAMRIFNSDGSEPEMCGNGVRCFARFIAELENLQGKHSFTIHTGAGLIVPEIQDDGQVKVDMGTPILKAQDVPTKLSGNKGEAVVEAELVVDGVSWNVTCVSMGNPHCITFGKKGGPNLKVDDLNLPEIGPKFEHHEMFPARTNTEFVEVLSRSHLKMRVWERGAGATLACGTGACALVVAAVLEGRADRKCTVDLPGGPLEIEWKQEDNHIYMTGPAEAVFYGSALL | – | 68
